Ten compounds from US20240116985A1, “STAPLED PEPTIDES AND METHODS THEREOF” (priority 2020, published 2024) can be followed below.

SMILES strings stand for the structures. ≈ marks a conversion by molar mass, not a printed value. Where two headings read alike, the source gives them in different places.

Data set [1] in a line: Solubility in PBS. In kind it is physicochemical. In outline:
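PBS sample ultracentrifuged; supernatant run on HPLC vs. 50 μM peptide in DMSO standard. Solubility = (PBS peak area / DMSO peak area) × 50 uM.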

Data set [2] is described as follows: CHI Log D procedure. In kind it is physicochemical. The conditions noted are these: pH 7.4, CHI Log D.
Data set [3] concerns the target T1, full-length beta-Catenin (Uniprot ID P35222) (Homo sapiens, UniProt P35222).
T1 construct: 10 nM full-length beta-Catenin (Uniprot ID P35222)
T1 sequence (P35222 1-781): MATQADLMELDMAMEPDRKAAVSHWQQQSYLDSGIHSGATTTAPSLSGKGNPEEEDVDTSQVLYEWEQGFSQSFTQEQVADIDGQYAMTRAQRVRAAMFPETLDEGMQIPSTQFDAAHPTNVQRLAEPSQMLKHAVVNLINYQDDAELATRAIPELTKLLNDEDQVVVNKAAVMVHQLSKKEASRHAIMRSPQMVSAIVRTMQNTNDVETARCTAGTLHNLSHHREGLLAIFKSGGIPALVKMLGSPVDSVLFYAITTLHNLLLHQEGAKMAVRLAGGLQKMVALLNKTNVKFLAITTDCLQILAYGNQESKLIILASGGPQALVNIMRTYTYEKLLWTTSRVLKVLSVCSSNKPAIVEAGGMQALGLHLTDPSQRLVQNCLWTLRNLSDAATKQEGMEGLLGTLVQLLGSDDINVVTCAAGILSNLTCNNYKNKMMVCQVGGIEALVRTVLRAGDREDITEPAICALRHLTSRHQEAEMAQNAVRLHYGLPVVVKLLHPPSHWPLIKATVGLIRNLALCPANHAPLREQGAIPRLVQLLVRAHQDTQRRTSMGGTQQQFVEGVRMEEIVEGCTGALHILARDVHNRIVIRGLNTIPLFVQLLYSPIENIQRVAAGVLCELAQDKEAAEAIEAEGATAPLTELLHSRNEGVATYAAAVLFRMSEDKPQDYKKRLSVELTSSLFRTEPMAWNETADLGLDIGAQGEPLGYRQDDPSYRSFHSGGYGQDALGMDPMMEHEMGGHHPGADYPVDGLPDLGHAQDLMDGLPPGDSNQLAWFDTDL
The data set is described as follows: Fluorescence polarization IC50 (beta-catenin / 5FAM-TCF4 10-53 competition). As to conditions: read-out: beta-Catenin FP IC50. It is filed as binding.

Data set [4] addresses T2, beta-catenin/TCF4 engagement (Homo sapiens, UniProt P35222).
T2 construct: expressed in transfected cells; host or cells: HEK293
T2 sequence (P35222 1-781): T1 sequence (P35222 1-781)
Nature of the data set: Nano-BRET target engagement assay (B-cat-Halo & TCF4-Luc in HEK293 cells). In kind it is cell-based.

[5] abbreviates: absolute IC50, read-out: NanoBRET Abs IC50.

In turn, `COCCOCCOCCOCCOCCOCCC(=O)NCCCC[C@H](NC(=O)[C@H](CCC(N)=O)NC(=O)[C@H](Cc1csc2ccccc12)NC(=O)[C@H](Cc1ccsc1)NC(=O)[C@]12CCN(C1)C(=O)OCCCC=CCCCC1(CCCC=CC[C@]3(CCCN3C(C)=O)C(=O)N[C@@H](CC(=O)O)C(=O)N[C@@H](CC(C)(C)C)C(=O)N1)C(=O)N[C@@H](CC(=O)O)C(=O)N[C@@H](CC(=O)O)C(=O)N[C@@H](C)C(=O)N[C@@H](C)C(=O)N[C@@H](Cc1ccccc1)C(=O)N[C@@H](CC(N)=O)C(=O)N2)C(N)=O` (stereo partly drawn) [I-913, Ac-PL3-Asp-Npg-B5-Asp-Asp-Ala-Ala-Phe-Asn-PyrS2-3Thi-BztA-Gln-[mPEG6]Lys-NH2] yielded a Solubility in data set [1] (Solubility (uM)) of 49 µM (≈ 115 µg/mL). The compound further had a chromatographic logD in data set [2] of 1.82. Besides, the IC50 came out at 0.01 µM in data set [3] and 26.4 µM in data set [4] (read-out: NanoBRET Abs IC50).

`CC(=O)N1CCC[C@]12CC=CCCCC1(CCCC=CCCCOC(=O)N3CC[C@@](C(=O)N[C@@H](Cc4ccsc4)C(=O)N[C@@H](Cc4csc5ccccc45)C(=O)N[C@@H](CCC(N)=O)C(=O)N[C@@H](CCCCNC(=O)c4ccc5ccccc5c4)C(N)=O)(C3)NC(=O)[C@H](CC(N)=O)NC(=O)[C@H](Cc3ccccc3)NC(=O)[C@H](C)NC(=O)[C@H](C)NC(=O)[C@H](CC(=O)O)NC(=O)[C@H](CC(=O)O)NC1=O)NC(=O)[C@H](CC(C)(C)C)NC(=O)[C@H](CC(=O)O)NC2=O` (stereo partly drawn) [I-915, Ac-PL3-Asp-Npg-B5-Asp-Asp-Ala-Ala-Phe-Asn-PyrS2-3Thi-BztA-Gln-[2Napc]Lys-NH2] showed a Solubility in data set [1] (Solubility (uM)) of 41 µM (≈ 90.2 µg/mL). In data set [2], the chromatographic logD worked out at 2.33. Also, the IC50 came out at 0.028 µM in data set [3] and 15.5 µM in data set [4] (read-out: NanoBRET Abs IC50).

Take `CCCC(=O)NCCCC[C@H](NC(=O)[C@H](CCC(N)=O)NC(=O)[C@H](Cc1csc2ccccc12)NC(=O)[C@H](Cc1ccsc1)NC(=O)[C@]12CCN(C1)C(=O)OCCCC=CCCCC1(CCCC=CC[C@]3(CCCN3C(C)=O)C(=O)N[C@@H](CC(=O)O)C(=O)N[C@@H](CC(C)(C)C)C(=O)N1)C(=O)N[C@@H](CC(=O)O)C(=O)N[C@@H](CC(=O)O)C(=O)N[C@@H](C)C(=O)N[C@@H](C)C(=O)N[C@@H](Cc1ccccc1)C(=O)N[C@@H](CC(N)=O)C(=O)N2)C(N)=O` (stereo partly drawn) [I-917, Ac-PL3-Asp-Npg-B5-Asp-Asp-Ala-Ala-Phe-Asn-PyrS2-3Thi-BztA-Gln-[Bua]Lys-NH2]: the concentration in solution in data set [1] (Solubility (uM)) (Solubility) was 44 µM (≈ 93.1 µg/mL). Besides, the chromatographic logD in data set [2] was 2.15. Moreover, the IC50 in data set [3] is 0.012 µM; in data set [4] (read-out: NanoBRET Abs IC50), 19.7 µM.

For the compound `CCCCCCCC(=O)NCCCC[C@H](NC(=O)[C@H](CCC(N)=O)NC(=O)[C@H](Cc1csc2ccccc12)NC(=O)[C@H](Cc1ccsc1)NC(=O)[C@]12CCN(C1)C(=O)OCCCC=CCCCC1(CCCC=CC[C@]3(CCCN3C(C)=O)C(=O)N[C@@H](CC(=O)O)C(=O)N[C@@H](CC(C)(C)C)C(=O)N1)C(=O)N[C@@H](CC(=O)O)C(=O)N[C@@H](CC(=O)O)C(=O)N[C@@H](C)C(=O)N[C@@H](C)C(=O)N[C@@H](Cc1ccccc1)C(=O)N[C@@H](CC(N)=O)C(=O)N2)C(N)=O` (stereo partly drawn) [I-918, Ac-PL3-Asp-Npg-B5-Asp-Asp-Ala-Ala-Phe-Asn-PyrS2-3Thi-BztA-Gln-[Oct]Lys-NH2], in data set [1] (Solubility (uM)), the Solubility is 44 µM (≈ 95.6 µg/mL). The same compound gave a chromatographic logD in data set [2] of 2.49. In addition, the IC50 in data set [3] was 0.033 µM; in data set [4] (read-out: NanoBRET Abs IC50) it was 11.1 µM.

`CC(=O)N1CCC[C@]12CC=CCCCC1(CCCC=CCCCOC(=O)N3CC[C@@](C(=O)N[C@@H](Cc4ccsc4)C(=O)N[C@@H](Cc4csc5ccccc45)C(=O)N[C@@H](CCC(N)=O)C(=O)N[C@@H](CCCCNC(=O)C45CC6CC(CC(C6)C4)C5)C(N)=O)(C3)NC(=O)[C@H](CC(N)=O)NC(=O)[C@H](Cc3ccccc3)NC(=O)[C@H](C)NC(=O)[C@H](C)NC(=O)[C@H](CC(=O)O)NC(=O)[C@H](CC(=O)O)NC1=O)NC(=O)[C@H](CC(C)(C)C)NC(=O)[C@H](CC(=O)O)NC2=O` (stereo partly drawn) [I-919, Ac-PL3-Asp-Npg-B5-Asp-Asp-Ala-Ala-Phe-Asn-PyrS2-3Thi-BztA-Gln-[AdamantC]Lys-NH2]: the Solubility in data set [1] (Solubility (uM)) came out at 44 µM (≈ 97.2 µg/mL). Moreover, the chromatographic logD in data set [2] came to 2.55. The IC50 in data set [3] came out at 0.028 µM; in data set [4] (read-out: NanoBRET Abs IC50), 15.2 µM.

`CC(=O)N1CCC[C@]12CC=CCCCC1(CCCC=CCCCOC(=O)N3CC[C@@](C(=O)N[C@@H](Cc4ccsc4)C(=O)N[C@@H](Cc4csc5ccccc45)C(=O)N[C@@H](CCC(N)=O)C(=O)N[C@@H](CCCCNC(=O)C45CC6(C)CC(C)(CC(C)(C6)C4)C5)C(N)=O)(C3)NC(=O)[C@H](CC(N)=O)NC(=O)[C@H](Cc3ccccc3)NC(=O)[C@H](C)NC(=O)[C@H](C)NC(=O)[C@H](CC(=O)O)NC(=O)[C@H](CC(=O)O)NC1=O)NC(=O)[C@H](CC(C)(C)C)NC(=O)[C@H](CC(=O)O)NC2=O` (stereo partly drawn) [I-920, Ac-PL3-Asp-Npg-B5-Asp-Asp-Ala-Ala-Phe-Asn-PyrS2-3Thi-BztA-Gln-[Me3AdamantC]Lys-NH2]: the “Solubility” value in data set [1] is 50 µM (≈ 113 µg/mL). The chromatographic logD in data set [2] came to 3.08. Besides, the IC50 was found to be 0.117 µM in data set [3] and 17.7 µM in data set [4] (read-out: NanoBRET Abs IC50).

The compound `CC(=O)N1CCC[C@]12CC=CCCCC1(CCCC=CCCCOC(=O)N3CC[C@@](C(=O)N[C@@H](Cc4ccccc4Cl)C(=O)N[C@@H](Cc4csc5ccccc45)C(=O)N[C@@H](CCC(N)=O)C(N)=O)(C3)NC(=O)[C@H](CC(N)=O)NC(=O)[C@H](Cc3ccccc3)NC(=O)[C@H](C)NC(=O)[C@H](C)NC(=O)[C@H](CN(CC(=O)O)CC(F)(F)F)NC(=O)[C@H](CC(=O)O)NC1=O)NC(=O)[C@H](CC(C)(C)C)NC(=O)[C@H](CC(=O)O)NC2=O` (stereo partly drawn) [I-921, Ac-PL3-Asp-Npg-B5-Asp-TfeGA-Ala-Ala-Phe-Asn-PyrS2-2C1F-BztA-Gln-NH2] yielded a Solubility in data set [1] (Solubility (uM)) of 24 µM (≈ 49.4 µg/mL). In data set [2], this compound came in with a chromatographic logD of 2.26. Moreover, the values for the IC50 in data set [3] and in data set [4] (read-out: NanoBRET IC50) were 0.008 µM and 4 µM, respectively.

In data set [1] (Solubility (uM)), `CC(=O)N1CCC[C@]12CC=CCCCC1(CCCC=CCCCOC(=O)N3CC[C@@](C(=O)N[C@@H](Cc4ccsc4)C(=O)N[C@@H](Cc4csc5ccccc45)C(=O)N[C@@H](CCC(N)=O)C(=O)N[C@@H](CCCCN)C(N)=O)(C3)NC(=O)[C@H](CC(N)=O)NC(=O)[C@H](Cc3ccccc3)NC(=O)[C@H](C)NC(=O)[C@H](C)NC(=O)[C@H](CC(=O)O)NC(=O)[C@H](CC(=O)O)NC1=O)NC(=O)[C@H](CC(C)(C)C)NC(=O)[C@H](CC(=O)O)NC2=O` (stereo partly drawn) [I-939, Ac-PL3-Asp-Npg-B5-Asp-Asp-Ala-Ala-Phe-Asn-PyrS2-3Thi-BztA-Gln-Lys-NH2] showed a Solubility of 15 µM (≈ 30.7 µg/mL). In data set [2], this compound yielded a chromatographic logD of 1.79. The IC50 came to 0.008 µM in data set [3], 25.1 µM in data set [4] (read-out: NanoBRET Abs IC50) and 18 µM in data set [4] (read-out: NanoBRET IC50).

In the case of `CC(=O)N1CCC[C@]12CC=CCCCC1(CCCC=CCCCOC(=O)N3CC[C@@](C(=O)N[C@@H](Cc4ccccc4Cl)C(=O)N[C@@H](Cc4csc5ccccc45)C(=O)N[C@@H](CO)C(N)=O)(C3)NC(=O)[C@H](Cc3ccccc3)NC(=O)[C@H](Cc3ccccc3)NC(=O)[C@H](C)NC(=O)[C@H](C)NC(=O)[C@H](CN(CC(=O)O)CC(F)(F)F)NC(=O)[C@H](CC(=O)O)NC1=O)NC(=O)[C@H](CC(C)(C)C)NC(=O)[C@H](CC(=O)O)NC2=O` (stereo partly drawn) [I-990, Ac-PL3-Asp-Npg-B5-Asp-TfeGA-Ala-Ala-Phe-Phe-PyrS2-2C1F-BztA-Ser-NH2], the “Solubility” value in data set [1] is 10 µM (≈ 20.5 µg/mL). For the same compound, in data set [2], the chromatographic logD worked out at 2.65. Moreover, the IC50 in data set [3] is 0.041 µM; in data set [4] (setting [5]) it was 8.8 µM.

As to `CC(=O)N1CCC[C@]12CC=CCCCC1(CCCC=CCCCOC(=O)N3CC[C@@](C(=O)N[C@@H](Cc4ccccc4Cl)C(=O)N[C@@H](Cc4csc5ccccc45)C(=O)N[C@@H](CCC(N)=O)C(N)=O)(C3)NC(=O)[C@H](CC(N)=O)NC(=O)[C@H](Cc3ccccc3)NC(=O)[C@H](CCCCN)NC(=O)[C@H](C)NC(=O)[C@H](CN(CC(=O)O)CC(F)(F)F)NC(=O)[C@H](CC(=O)O)NC1=O)NC(=O)[C@H](CC(C)(C)C)NC(=O)[C@H](CC(=O)O)NC2=O` (stereo partly drawn) [I-1006, Ac-PL3-Asp-Npg-B5-Asp-TfeGA-Ala-Lys-Phe-Asn-PyrS2-2C1F-BztA-Gln-NH2], the Solubility in data set [1] (Solubility (uM)) was determined as 30 µM (≈ 63.4 µg/mL). In addition, the chromatographic logD in data set [2] is 1.7. For the same compound, the IC50 in data set [3] was 0.005 µM; in data set [4] (setting [5]), greater than 20 µM.
